From PMC12624955, “Exploring diarylheptanoid derivatives to target LIMK1 as potential agents against colorectal cancer” (Journal of Enzyme Inhibition and Medicinal Chemistry, 2025)

How the values were obtained:
LIMK1 = target: T1, LIMK1 (Homo sapiens, UniProt P53667); experiment: LanthaScreen Eu kinase binding assay (SelectScreen), LIMK1 inhibition
T1 construct: purchased Thermo Fisher Scientific (SelectScreen Kinase assay service)
Method: (§1) The inhibitory activities of the compounds against kinases were tested using the SelectScreen Kinase assay from Thermo Fisher Scientific in Waltham, MA, USA. The LanthaScreen Eu kinase binding assay was used to validate the LIMK1 inhibition activity of the compounds, and was performed according to the manufacturer’s protocol (https://www.thermofisher.com/tw/zt/home/industrial/pharma-biopharma/drug-discovery-development/target-and-lead-identification-and-validation/kinasebiology/kinase-activity-assays/lanthascreentm-eu-kinase-binding-assay/lanthascreen-eu-kinase-binding-assay-validation-table.html). This endpoint assay quantifies inhibitor binding through the displacement of a fluorescently labelled ATP-competitive tracer from LIMK1. A mixture of the 100× compounds, 2× LIMK1/antibody mixture (Eu-anti-His), 4× tracer 236, and kinase buffer were mixed sequentially. After incubation at room temperature for 1 h, the mixture was analysed using a fluorescence plate reader. The kinase inhibition assay results were expressed as the average of two replicates.

HCT-116 [1] = experiment: MTT assay (cell viability); format: cell-based; conditions: Homo sapiens, 72 h, mean ± SD
Method: (§2) Colorectal cell line, HCT-116, was purchased from the Bioresource Collection and Research Centre (BCRC, Hsinchu, Taiwan), while HT-29 was obtained from the American Type Culture Collection (ATCC, Manassas, VA, USA). Both cell lines were maintained in McCoy’s 5 A medium (with L-glutamine and 2.2 g/L NaHCO3, M4892, Sigma) supplemented with 10% foetal bovine serum (Corning Incorporated, NY, USA) and 1% penicillin–streptomycin–amphotericin B (100 unit/ml penicillin G, 0.1 mg/ml streptomycin sulphate, 0.25 μg/ml amphotericin B, Corning Incorporated, NY, USA). All cultures were maintained in a humidified incubator at 37 °C with 5% CO2.
(§3) Cells were seeded in 96-well plates at a density of 3 × 10^3 cells/well in 100 μl of culture medium and treated with compounds at the indicated concentrations (0.3, 1, 3, 10, and 30 μM) for 72 h. Following treatment, the 3-(4,5-dimethylthiazol-2-yl)-2,5-diphenyltetrazolium bromide (MTT) solution (5 mg/ml in Phosphate-buffered saline (PBS)) was added to each well to reach a final concentration of 0.5 mg/ml, and the cells were incubated at 37 °C for 1 h. The resulting formazan crystal was dissolved in 100 µl of DMSO, and the absorbance was measured at 550 nm using an ELISA reader (Molecular Device, Sunnyvale, CA, USA).

HT-29 [2] = experiment: MTT assay (cell viability); format: cell-based; conditions: Homo sapiens, 72 h, mean ± SD
Method: as §2, §3

DAPK1 = target: T2, DAPK1 (Homo sapiens, UniProt P53355); experiment: SelectScreen kinase panel, Adapta Universal kinase assay; format: biochemical; conditions: read-out: Inhibition percentage at 1 μM
T2 construct: purchased Thermo Fisher Scientific SelectScreen
Method: Kinase panel screening was carried out using the SelectScreen Kinase Assay (Thermo Fisher Scientific, Waltham, MA, USA). Three complementary assay formats were applied: the Z′-LYTE kinase assay, LanthaScreen Eu kinase binding assay, and Adapta Universal kinase assay. The kinases selected for this study and the corresponding assay formats are summarised in Supplementary Table S1. The Adapta Universal Kinase Assay (Thermo Fisher Scientific, Waltham, MA, USA) was used to assess kinase activity. This homogeneous, fluorescence-based immunoassay quantifies kinase activity by detecting ADP produced during the enzymatic reaction, according to the manufacturer’s instructions (https://www.thermofisher.com/tw/zt/home/industrial/pharma-biopharma/drug-discovery-development/target-and-lead-identification-and-validation/kinasebiology/kinase-activity-assays/adapta-universal-kinase-assay.html).

HCT-116 [3] = experiment: Sulforhodamine B assay (cell proliferation); format: cell-based; conditions: Homo sapiens, SRB assay, 72 h, mean ± SD
Method: as §2
(§4) Cells were seeded in 96-well plates at a density of 3 × 10^3 cells/well in 100 μl of culture medium and treated with compounds at the indicated concentrations for 72 h. After treatment, cells were fixed with 10% trichloroacetic acid for 20 min and washed with H2O. The cells were then stained with 0.4% sulforhodamine B (SRB) in 1% acetic acid for 20 min, followed by two washes with 1% acetic acid. After the well-dried, the protein-bound dye was dissolved in 100 µl of 10 mM Tris base solution, and the absorbance was measured at 515 nm using an ELISA reader (Molecular Device, Sunnyvale, CA, USA).

HT-29 [4] = experiment: Sulforhodamine B assay (cell proliferation); format: cell-based; conditions: Homo sapiens, SRB assay, 72 h, mean ± SD
Method: as §2, §4

TGFBR1 (ALK5) = target: T3, TGFBR1 (ALK5) (Homo sapiens, UniProt P36897); experiment: SelectScreen kinase panel, LanthaScreen Eu kinase binding assay; conditions: read-out: Inhibition percentage at 1 μM
T3 construct: purchased Thermo Fisher Scientific SelectScreen
Method: as §1
(§5) Kinase panel screening was carried out using the SelectScreen Kinase Assay (Thermo Fisher Scientific, Waltham, MA, USA). Three complementary assay formats were applied: the Z′-LYTE kinase assay, LanthaScreen Eu kinase binding assay, and Adapta Universal kinase assay. The kinases selected for this study and the corresponding assay formats are summarised in Supplementary Table S1.

WEE1 = target: T4, WEE1 (Homo sapiens, UniProt P30291); experiment: as above; conditions: read-out: Inhibition percentage at 1 μM
T4 construct: purchased Thermo Fisher Scientific SelectScreen
Method: as §1, §5

VRK2 = target: T5, VRK2 (Homo sapiens, UniProt Q86Y07); experiment: as above; conditions: read-out: Inhibition percentage at 1 μM
T5 construct: purchased Thermo Fisher Scientific SelectScreen
Method: as §1, §5

ICK = target: T6, ICK (Homo sapiens, UniProt Q9UPZ9); experiment: as above; conditions: read-out: Inhibition percentage at 1 μM
T6 construct: purchased Thermo Fisher Scientific SelectScreen
Method: as §1, §5

LIMK2 = target: T7, LIMK2 (Homo sapiens, UniProt P53671); experiment: as above; conditions: read-out: Inhibition percentage at 1 μM
T7 construct: purchased Thermo Fisher Scientific SelectScreen
Method: as §1, §5

MAP2K1 (MEK1) = target: T8, MAP2K1 (MEK1) (Homo sapiens, UniProt Q02750); experiment: as above; conditions: read-out: Inhibition percentage at 1 μM
T8 construct: purchased Thermo Fisher Scientific SelectScreen
Method: as §1, §5

BRAF = target: T9, BRAF (Homo sapiens, UniProt P15056); experiment: as above; conditions: read-out: Inhibition percentage at 1 μM
T9 construct: purchased Thermo Fisher Scientific SelectScreen
Method: as §1, §5

EPHA3 = target: T10, EPHA3 (Homo sapiens, UniProt P29320); experiment: as above; conditions: read-out: Inhibition percentage at 1 μM
T10 construct: purchased Thermo Fisher Scientific SelectScreen
Method: as §1, §5

HCT-116 [5] = experiment: Analysis of cell cycle by flow cytometry; format: cell-based; conditions: HCT116; 1, 3, 10, and 30 μM for 72 h
Method: (§6) Cells were seeded in six-well plates at a density of 5 × 10^5 cells/well in a 2 ml culture medium and treated with compounds at the indicated concentration for 72 h. After treatment, cells were collected and fixed with 75% (v/v) ice-cold ethanol at −20 °C for 20 min. The cells were then centrifuged to remove the buffer, resuspended, and stained with 0.5 ml of propidium iodide (PI) staining buffer (80 µg/ml PI, […] RNase A, and 1% Triton X-100 in PBS). The cell cycle distribution was analysed using a BD Accuri™ Flow cytometer and software (Becton Dickinson, Mountain View, CA, USA).

HT-29 [6] = experiment: Analysis of cell cycle by flow cytometry; format: cell-based; conditions: 1, 3, 10, and 30 μM for 72 h
Method: as §6

T1 sequence (P53667 whole entry): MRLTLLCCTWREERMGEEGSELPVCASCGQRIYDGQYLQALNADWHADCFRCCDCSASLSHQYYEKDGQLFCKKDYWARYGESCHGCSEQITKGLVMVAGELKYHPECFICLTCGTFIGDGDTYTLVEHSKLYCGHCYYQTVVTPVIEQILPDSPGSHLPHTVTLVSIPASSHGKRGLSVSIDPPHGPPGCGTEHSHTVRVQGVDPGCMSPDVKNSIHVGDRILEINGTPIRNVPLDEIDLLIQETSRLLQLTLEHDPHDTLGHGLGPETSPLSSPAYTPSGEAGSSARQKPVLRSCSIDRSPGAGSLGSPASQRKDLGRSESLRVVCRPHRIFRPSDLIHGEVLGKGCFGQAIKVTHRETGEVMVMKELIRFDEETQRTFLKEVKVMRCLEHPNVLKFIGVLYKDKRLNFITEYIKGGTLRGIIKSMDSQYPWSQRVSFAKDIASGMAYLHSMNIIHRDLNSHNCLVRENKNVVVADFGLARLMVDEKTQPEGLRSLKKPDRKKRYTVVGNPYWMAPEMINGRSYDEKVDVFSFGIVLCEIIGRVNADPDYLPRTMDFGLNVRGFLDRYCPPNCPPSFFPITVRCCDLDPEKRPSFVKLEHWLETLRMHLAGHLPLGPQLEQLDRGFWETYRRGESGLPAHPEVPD
T3 sequence (P36897 34-503): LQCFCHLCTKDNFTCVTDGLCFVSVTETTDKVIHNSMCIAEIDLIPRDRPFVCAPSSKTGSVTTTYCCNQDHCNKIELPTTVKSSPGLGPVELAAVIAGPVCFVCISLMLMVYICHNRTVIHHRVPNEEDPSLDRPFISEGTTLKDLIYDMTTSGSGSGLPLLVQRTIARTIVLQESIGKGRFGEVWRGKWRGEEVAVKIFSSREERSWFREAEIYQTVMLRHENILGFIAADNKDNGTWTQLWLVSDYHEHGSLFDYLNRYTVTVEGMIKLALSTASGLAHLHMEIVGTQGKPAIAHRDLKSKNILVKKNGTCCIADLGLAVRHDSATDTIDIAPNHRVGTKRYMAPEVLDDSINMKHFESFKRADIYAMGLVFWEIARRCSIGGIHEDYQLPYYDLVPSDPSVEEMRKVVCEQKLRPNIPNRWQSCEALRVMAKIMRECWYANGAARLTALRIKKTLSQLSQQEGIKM
T5 sequence (Q86Y07 whole entry): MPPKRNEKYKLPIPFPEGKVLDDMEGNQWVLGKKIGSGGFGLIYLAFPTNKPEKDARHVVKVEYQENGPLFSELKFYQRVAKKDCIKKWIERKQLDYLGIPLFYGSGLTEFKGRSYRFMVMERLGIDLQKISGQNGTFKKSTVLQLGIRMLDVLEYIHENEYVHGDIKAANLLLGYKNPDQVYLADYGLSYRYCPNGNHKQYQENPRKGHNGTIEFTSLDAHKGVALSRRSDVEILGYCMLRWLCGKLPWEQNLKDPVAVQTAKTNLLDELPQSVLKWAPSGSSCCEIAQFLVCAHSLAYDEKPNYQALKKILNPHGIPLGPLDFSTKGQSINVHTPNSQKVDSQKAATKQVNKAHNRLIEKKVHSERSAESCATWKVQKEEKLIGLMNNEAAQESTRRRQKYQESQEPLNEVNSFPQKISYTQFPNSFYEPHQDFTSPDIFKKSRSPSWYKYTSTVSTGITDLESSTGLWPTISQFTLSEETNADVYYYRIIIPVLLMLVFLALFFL
T9 sequence (P15056 whole entry): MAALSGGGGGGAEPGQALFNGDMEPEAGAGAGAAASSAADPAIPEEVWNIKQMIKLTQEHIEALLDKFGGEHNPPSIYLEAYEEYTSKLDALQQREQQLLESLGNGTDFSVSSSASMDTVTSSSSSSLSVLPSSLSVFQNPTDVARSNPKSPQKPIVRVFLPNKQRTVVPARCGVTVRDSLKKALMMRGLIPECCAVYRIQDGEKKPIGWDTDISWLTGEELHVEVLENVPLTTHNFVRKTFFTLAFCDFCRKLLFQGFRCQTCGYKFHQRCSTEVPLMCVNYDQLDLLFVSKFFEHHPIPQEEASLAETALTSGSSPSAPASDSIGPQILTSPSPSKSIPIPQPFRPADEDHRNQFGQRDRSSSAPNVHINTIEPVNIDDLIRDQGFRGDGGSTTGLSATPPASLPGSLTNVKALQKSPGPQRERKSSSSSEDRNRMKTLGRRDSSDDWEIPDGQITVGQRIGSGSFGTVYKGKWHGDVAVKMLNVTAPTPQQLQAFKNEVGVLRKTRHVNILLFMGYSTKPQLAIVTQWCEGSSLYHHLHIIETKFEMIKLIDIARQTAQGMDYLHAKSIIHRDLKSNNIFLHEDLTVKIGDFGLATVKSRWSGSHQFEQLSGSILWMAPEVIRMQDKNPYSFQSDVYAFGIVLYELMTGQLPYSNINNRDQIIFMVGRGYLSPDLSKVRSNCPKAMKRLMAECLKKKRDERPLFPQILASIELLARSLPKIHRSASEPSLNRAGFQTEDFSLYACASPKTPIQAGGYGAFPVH
T8 sequence (Q02750 whole entry): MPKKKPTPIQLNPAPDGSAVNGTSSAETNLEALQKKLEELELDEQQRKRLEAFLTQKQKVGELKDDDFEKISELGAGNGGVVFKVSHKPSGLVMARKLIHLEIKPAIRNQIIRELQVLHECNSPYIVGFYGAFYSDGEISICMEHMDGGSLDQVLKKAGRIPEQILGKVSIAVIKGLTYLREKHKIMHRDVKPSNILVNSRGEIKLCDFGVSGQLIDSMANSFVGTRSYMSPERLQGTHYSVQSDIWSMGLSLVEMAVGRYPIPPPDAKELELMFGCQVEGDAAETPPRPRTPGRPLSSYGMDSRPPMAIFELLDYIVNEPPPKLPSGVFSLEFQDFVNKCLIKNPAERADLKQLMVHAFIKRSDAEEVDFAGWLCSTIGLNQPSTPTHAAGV
T6 sequence (Q9UPZ9 whole entry): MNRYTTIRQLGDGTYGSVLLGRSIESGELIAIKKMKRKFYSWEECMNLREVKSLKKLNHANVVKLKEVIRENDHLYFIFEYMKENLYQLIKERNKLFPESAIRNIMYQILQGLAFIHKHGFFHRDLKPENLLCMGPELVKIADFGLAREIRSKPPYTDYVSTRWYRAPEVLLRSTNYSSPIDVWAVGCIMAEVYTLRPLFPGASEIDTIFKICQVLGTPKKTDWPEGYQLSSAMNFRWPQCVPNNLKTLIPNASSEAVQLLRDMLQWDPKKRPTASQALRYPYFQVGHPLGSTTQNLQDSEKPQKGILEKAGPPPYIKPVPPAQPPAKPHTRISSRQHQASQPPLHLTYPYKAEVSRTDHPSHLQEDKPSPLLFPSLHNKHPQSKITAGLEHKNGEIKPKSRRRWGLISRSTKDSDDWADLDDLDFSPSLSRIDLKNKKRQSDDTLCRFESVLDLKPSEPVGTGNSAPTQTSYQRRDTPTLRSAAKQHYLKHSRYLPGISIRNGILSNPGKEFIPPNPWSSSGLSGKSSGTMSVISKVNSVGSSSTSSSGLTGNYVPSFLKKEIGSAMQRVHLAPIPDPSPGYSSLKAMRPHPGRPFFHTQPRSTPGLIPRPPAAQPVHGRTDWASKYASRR
T10 sequence (P29320 21-983): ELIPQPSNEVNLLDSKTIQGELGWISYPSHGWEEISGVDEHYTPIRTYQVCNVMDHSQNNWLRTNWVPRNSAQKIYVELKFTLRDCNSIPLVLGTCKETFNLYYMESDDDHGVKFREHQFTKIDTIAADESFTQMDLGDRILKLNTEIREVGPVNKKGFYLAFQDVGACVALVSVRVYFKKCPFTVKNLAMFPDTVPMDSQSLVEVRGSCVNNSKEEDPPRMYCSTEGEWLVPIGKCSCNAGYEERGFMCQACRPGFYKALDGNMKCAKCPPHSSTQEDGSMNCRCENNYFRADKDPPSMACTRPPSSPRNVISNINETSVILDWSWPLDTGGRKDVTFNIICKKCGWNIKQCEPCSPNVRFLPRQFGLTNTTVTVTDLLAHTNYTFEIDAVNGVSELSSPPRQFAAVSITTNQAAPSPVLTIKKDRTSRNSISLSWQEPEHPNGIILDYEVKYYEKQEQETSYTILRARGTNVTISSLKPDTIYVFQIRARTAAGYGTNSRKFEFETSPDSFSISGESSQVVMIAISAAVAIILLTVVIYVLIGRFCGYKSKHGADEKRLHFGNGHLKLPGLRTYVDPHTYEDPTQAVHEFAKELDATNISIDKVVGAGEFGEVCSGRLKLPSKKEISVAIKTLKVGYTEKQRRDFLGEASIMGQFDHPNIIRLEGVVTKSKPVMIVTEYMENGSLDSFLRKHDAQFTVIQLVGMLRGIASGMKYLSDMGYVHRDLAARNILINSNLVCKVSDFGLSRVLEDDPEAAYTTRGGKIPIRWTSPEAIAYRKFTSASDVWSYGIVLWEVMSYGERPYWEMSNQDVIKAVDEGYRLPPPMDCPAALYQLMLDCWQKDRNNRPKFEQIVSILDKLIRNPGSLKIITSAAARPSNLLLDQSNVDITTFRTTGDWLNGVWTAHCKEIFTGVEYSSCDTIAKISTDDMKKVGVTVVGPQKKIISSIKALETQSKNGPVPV
T4 sequence (P30291 whole entry): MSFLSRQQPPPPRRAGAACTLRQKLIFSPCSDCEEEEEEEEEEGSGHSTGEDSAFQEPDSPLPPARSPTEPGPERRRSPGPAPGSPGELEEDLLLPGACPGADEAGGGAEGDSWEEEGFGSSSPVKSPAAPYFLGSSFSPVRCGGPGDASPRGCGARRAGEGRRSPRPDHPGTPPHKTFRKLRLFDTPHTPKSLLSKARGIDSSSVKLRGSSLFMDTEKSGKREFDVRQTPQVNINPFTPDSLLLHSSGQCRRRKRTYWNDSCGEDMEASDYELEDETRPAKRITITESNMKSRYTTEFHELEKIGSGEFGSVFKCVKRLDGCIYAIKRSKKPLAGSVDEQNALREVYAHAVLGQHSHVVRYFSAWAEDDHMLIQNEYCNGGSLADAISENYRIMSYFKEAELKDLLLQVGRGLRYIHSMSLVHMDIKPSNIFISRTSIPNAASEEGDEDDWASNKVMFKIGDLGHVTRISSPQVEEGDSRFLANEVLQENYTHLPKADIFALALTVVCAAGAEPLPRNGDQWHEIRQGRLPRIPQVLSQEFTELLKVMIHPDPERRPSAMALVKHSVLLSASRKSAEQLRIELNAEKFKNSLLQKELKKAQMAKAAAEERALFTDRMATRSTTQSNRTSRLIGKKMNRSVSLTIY

**Q.** Which IC50 (LIMK1) does the source give for O=C(/C=C/c1ccc(O)c(O)c1)CCCCn1ccc2c(O)cccc21 [Compound 13a, (E)-1-(3,4-dihydroxyphenyl)-7-(4-hydroxy-1H-indol-1-yl)hept-1-en-3-one] here?
**A.** Its IC50 is 0.94 µM.

**Q.** And the inhibition at 1 µM (LIMK1; 1 μM, Figure 4(B), read-out: Inhibition percentage at 1 μM)?
**A.** The inhibition at 1 µM was greater than 50%.

**Q.** And the inhibition at 10 µM (LIMK1; compound at 10 μM, average of two replicates, read-out: Inhibition percentage at 10 μM)?
**A.** The inhibition at 10 µM was 109%.

**Q.** What about the IC50 (HCT-116 [1]) of the same compound?
**A.** The IC50 was 18.2 ± 0.9 µM.

**Q.** And the IC50 (HT-29 [2])?
**A.** The IC50 was 28.8 ± 0.4 µM.

**Q.** What about the inhibition at 1 µM (DAPK1) of the same compound?
**A.** The inhibition at 1 µM was -15%.

**Q.** And the GI50 (HCT-116 [3])?
**A.** The GI50 was 14.7 ± 0.8 µM.

**Q.** And the GI50 (HT-29 [4])?
**A.** Its GI50 is 10.4 ± 0.6 µM.

**Q.** What about the inhibition at 1 µM (TGFBR1 (ALK5)) of the same compound?
**A.** The inhibition at 1 µM was 24%.

**Q.** And the inhibition at 1 µM (WEE1)?
**A.** The inhibition at 1 µM was 44%.

**Q.** What about the inhibition at 1 µM (VRK2) of the same compound?
**A.** The inhibition at 1 µM was 3%.

**Q.** And the inhibition at 1 µM (ICK)?
**A.** Its inhibition at 1 µM is 32%.

**Q.** What about the inhibition at 1 µM (LIMK2) of the same compound?
**A.** Its inhibition at 1 µM is 30%.

**Q.** What about the inhibition at 1 µM (MAP2K1 (MEK1)) of the same compound?
**A.** The inhibition at 1 µM was 4%.

**Q.** And the inhibition at 1 µM (BRAF)?
**A.** Its inhibition at 1 µM is 16%.

**Q.** And the inhibition at 1 µM (EPHA3)?
**A.** The inhibition at 1 µM was 2%.

**Q.** What about the G0/G1 phase population (HCT-116 [5]) of the same compound?
**A.** The G0/G1 phase population was “decrease in the G0/G1 phase”.

**Q.** And the S phase population (HCT-116 [5])?
**A.** Its S phase population is “dose-dependent increase in the S phase”.

**Q.** And the “population of Sub-G1 cells” value (HCT-116 [5])?
**A.** The value was “increased in a dose-dependent manner”.

**Q.** What about the “population of Sub-G1 cells” value (HT-29 [6]) of the same compound?
**A.** Its value is “increased in a dose-dependent manner”.
